Reference: PubChem BioAssay (NCI)
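Grown in 96-well plates, cells were treated for 48 hours with each compound at five concentrations. Insufficient inhibition: endpoint recorded as highest concentration tested. GI50 is the concentration that inhibits growth by half. TGI denotes the concentration required for complete inhibition of growth.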

Legend:
Assay in all cases: growth of human tumour cells (NCI), 48 h
SF-268 CNS = tested on: SF-268 CNS
NCI/ADR-RES ovarian = tested on: NCI/ADR-RES ovarian
SF-539 CNS = tested on: SF-539 CNS
CAKI-1 renal = tested on: CAKI-1 renal
HL-60(TB) leukemia = tested on: HL-60(TB) leukemia
NCI-H226 lung = tested on: NCI-H226 lung
UACC-62 melanoma = tested on: UACC-62 melanoma
PC-3 prostate = tested on: PC-3 prostate
LXFL 529 NSCLC = tested on: LXFL 529 NSCLC
KM20L2 colon = tested on: KM20L2 colon

Compound	TGI (SF-268 CNS) [µM]	TGI (NCI/ADR-RES ovarian) [µM]	TGI (SF-539 CNS) [µM]	TGI (CAKI-1 renal) [µM]	TGI (HL-60(TB) leukemia) [µM]	TGI (NCI-H226 lung) [µM]	TGI (UACC-62 melanoma) [µM]	TGI (PC-3 prostate) [µM]	GI50 (SF-268 CNS) [µM]	GI50 (NCI/ADR-RES ovarian) [µM]	GI50 (SF-539 CNS) [µM]	GI50 (CAKI-1 renal) [µM]	GI50 (HL-60(TB) leukemia) [µM]	GI50 (NCI-H226 lung) [µM]	GI50 (UACC-62 melanoma) [µM]	GI50 (PC-3 prostate) [µM]	TGI (LXFL 529 NSCLC) [µM]	TGI (KM20L2 colon) [µM]	GI50 (KM20L2 colon) [µM]	GI50 (LXFL 529 NSCLC) [µM]
CC(C)(C)c1cc(C(=O)/C=C/c2ccc(C(=O)O)cc2)cc(C(C)(C)C)c1	6.82	6.8	2.97	15.5	> 100	4.22	4.67	16.4	–	–	–	–	–	–	–	–	–	–	–	–
NC(N)=N/N=C(\N=Nc1ccccc1)c1ccc(Cl)cc1	15.7	10.4	8.1	3.29	3.85	18.8	4.35	11.3	3.53	2.76	2.98	1.42	1.88	3.66	1.13	2.48	–	–	–	–
COc1cc2c(cc1OC)C1Cc3cc(OC)c(OC)cc3N1CC2 (stereo not given)	> 100	–	–	88.5	53.2	47.9	> 100	–	–	–	–	–	–	–	–	–	61.1	> 100	–	–
O=C1c2ccc3c4ccccc4n(-c4ccccc4)c3c2C(=O)N1c1ccc(Cl)cc1	> 100	–	> 100	> 100	> 100	> 100	> 100	–	–	–	–	–	–	–	–	–	> 100	> 100	–	–
Cn1cc(S(=O)(=O)N2CCC3=Cc4c(cnn4-c4ccc(F)cc4)C[C@]3(C(=O)c3cc(C(F)(F)F)ccn3)C2)cn1	> 100	> 100	> 100	> 100	> 100	> 100	> 100	> 100	> 100	> 100	95.8	60.1	> 100	81.1	29.1	31.4	–	–	–	–
CC(=O)[CH-]C(=O)c1ccccc1.CC(=O)[CH-]C(=O)c1ccccc1.O=S(=O)([O-])c1cc([O-])c2c([O-])cc(S(=O)(=O)[O-])cc2c1.[Na+].[Ti+4]	> 100	–	> 100	> 100	> 100	> 100	> 100	–	> 100	–	83.3	> 100	> 100	47.5	> 100	–	–	> 100	> 100	–
O=C(Nc1ccc(Cl)cc1)Nc1nccs1	63.1	30.1	6.42	54.8	10.2	57	57.9	40.3	8.53	0.575	1.81	2.36	2.3	4.46	0.756	2.79	–	–	–	–
NC(CCc1ncc(C(=O)O)s1)C(=O)O (stereo not given)	–	–	> 100	> 100	–	> 100	> 100	–	–	–	–	–	–	–	–	–	> 100	–	–	–
COc1ccc(-c2ccc(NNC(=O)c3ccc(F)cc3)nn2)cc1OC	> 100	> 100	> 100	> 100	> 100	> 100	> 100	> 100	79.8	43.2	> 100	34.3	33.5	71.8	> 100	50.5	–	–	–	–
Cc1ccc(C)c(N2C(=O)C(=O)C(c3nc4ccccc4o3)/C(=N\NC(=O)c3ccccc3O)C2=O)c1 (stereo not given)	> 100	–	65.2	18.5	31.2	88.6	84.4	–	–	–	–	–	–	–	–	–	> 100	> 100	–	–
O=C1CC2CCN(C(=O)c3ccccc3)CC2CCN1 (stereo not given)	> 100	–	> 100	–	> 100	> 100	> 100	–	–	–	–	–	–	–	–	–	> 100	> 100	–	–
Cc1ccc2[c](c1)[Sn]([c]1ccccc1)([c]1ccccc1)[c]1cc(C)ccc1N2C	> 100	–	> 100	–	–	> 100	> 100	–	48.4	–	> 100	–	–	49	20.9	–	> 100	> 100	> 100	26.6
c1ccc2c(c1)c1ccccc1c1ccccc21	> 100	> 100	> 100	> 100	> 100	> 100	> 100	> 100	> 100	> 100	> 100	> 100	> 100	> 100	> 100	> 100	–	–	–	–
NC(=O)c1cn(Cc2ccccc2)c(=O)n1Cc1ccccc1	> 100	–	> 100	> 100	> 100	> 100	> 100	–	–	–	–	–	–	–	–	–	> 100	> 100	–	–
CC(Cl)CN1c2ccccc2Sc2ccc(Cl)cc21 (stereo not given)	> 10	> 10	> 10	> 10	> 10	> 10	> 10	> 10	–	–	–	–	–	–	–	–	–	–	–	–
Oc1ccc(N=Nc2nccs2)c(O)c1	38.7	9.1	28.9	2.37	> 100	45.1	17.6	48.8	4.35	2.58	6.66	0.417	3.41	12.4	4.6	8.08	–	–	–	–
CN1C(NNC(=O)c2cccnc2)=NS(=O)(=O)c2cc(Cl)ccc21	> 100	> 100	> 100	> 100	> 100	> 100	> 100	> 100	> 100	> 100	> 100	> 100	> 100	> 100	> 100	> 100	–	–	–	–
COc1ccc(-c2nn(-c3cccc(Cl)c3)cc2-c2nc(N)[nH]c(=O)c2C#N)cc1	35.4	15.9	32.2	15.3	14.2	70.3	15.4	> 100	5.86	3.33	6.59	2.52	3.96	6.23	3.33	6.3	–	–	–	–
CC1COS(=O)O1 (stereo not given)	> 100	–	> 100	> 100	> 100	> 100	> 100	–	–	–	–	–	–	–	–	–	–	> 100	–	–
